Drug recovery data for 4 compounds are collected here from ChEMBL document CHEMBL3046081, “Phytotoxic effect, uptake, and transformation of biochanin A in selected weed species” (J Agric Food Chem, 2012).

Data set [1] deals with Leaf. Briefly: Drug recovery in leaf of Secale cereale (rye) at 5 ng/g by LC-MS analysis.
The test system of data set [2] is Leaf. Nature of the data set: Drug recovery in leaf of Secale cereale (rye) at 50 ng/g by LC-MS analysis.

As to `O=C(O)/C=C/c1ccc(O)cc1` [COUMARIC ACID], the figures for the Drug recovery in data set [1] and in data set [2] were 79% and 81%, respectively.

For `COc1ccc(C2COc3cc(O)cc(O)c3C2=O)cc1` (configuration not stated) [DIHYDROBIOCHANIN A], the Drug recovery is given as 104% in data set [1] and 76% in data set [2].

For the compound `O=c1c(-c2ccc(O)cc2)coc2cc(O)cc(O)c12` [GENISTEIN], the Drug recovery in data set [1] was determined as 81%; in data set [2] it was 65%.

Regarding `COc1ccc(-c2coc3cc(O)cc(O)c3c2=O)cc1O` [PRATENSEIN], the Drug recovery in data set [1] came out at 98%.
